The results in this text go back to patent US12083196B2, “Personal cleansing compositions with surfactants for increased foam performance” (ECOLAB USA INC., priority 2020, dated 2024).

A short description of this series: SITA Foam Analyzer foam decay. Format: physicochemical. To be noted: single surfactant, 1%, FIG. 2. From the text:
The reagents used below include: • Alpha-Step® PC-48 is a C10-16 sodium methyl 2-sulfolaurate and disodium 2-sulfolaurate available from Stepan; • Stepan-Mild® L3 is a predominantly C12 reaction product of lauryl alcohol and lactic acid available from Stepan; • SLES is sodium laureth sulfate; • Cola® Teric is an amphoteric sultaine available from Colonial Chemical, Inc.; • Glucopon® […] is an alkyl polyglycoside available from BASF Corporation; • Suga® Nate is a sodium laurylglucosides hydrooxypropylsulfonate available from Colonial Chemicals, Inc; • Lathanol® LAL is a sodium lauryl sulfoacetate available from Stepan. […] To rename sample measurement files, right click on the open sample window, and click “save” to rename your sample file • 8) If an error occurs at any point with your sample, the measurement reading can be stopped by clicking the red square “Stop icon” or by pressing the large red button on the machine • 9) Organize the graph generated with the icons in the fourth section of the tool bar: create new plot, add/remove data from plot, change axis properties, and view properties. […] Right click to rename the plot, insert or remove the plot and display the foam buildup, foam decay, or both The foam decay time was also measured. […]

For the substance sodium laureth sulfate [SLES], the “loss of foaming over 10 minutes” value is reported as “about 20 mL”.
